Measured values as given in ChEMBL document CHEMBL3885861, “Open TG-GATES”.

Organism: Rattus norvegicus
Test: Open TG-GATES - Regimen: Daily Repeat
Assay type: toxicity, organism-based, Sprague-Dawley
Set-up: regimen Daily Repeat, gender Male, age 6 weeks
Conditions: in vivo, po, 100 mg/kg, route gavage, dose level Low; for APTT / Bas / Eos / Fbg / Hb / Ht / Lym / MCH / MCHC / MCV / Mono / Neu / PT / Plat / RBC / Ret / WBC: tissue Blood; for KIDNEY_L / KIDNEY_R / KIDNEY_TOTAL: tissue Kidney; for LIVER: tissue Liver; for A/G / ALP / ALT / AST / BUN / CRE / Ca / Cl / DBIL / GLC / IP / K / LDH / Na / PL / RALB / TBIL / TC / TG / TP / gamma-GTP: tissue Plasma

Cc1nnc2n1-c1ccc(Cl)cc1C(c1ccccc1Cl)=NC2 [TRIAZOLAM]
TERMINAL_BW (72 h, time 3 day): 218.3 g | APTT (72 h, time 3 day): 21.4 s | Bas (72 h, time 3 day): 0% | Eos (72 h, time 3 day): 1.2% | Fbg (72 h, time 3 day): 274.2 mg/dL | Hb (72 h, time 3 day): 13.8 g/dL | Ht (72 h, time 3 day): 41.1% | Lym (72 h, time 3 day): 74.2% | MCH (72 h, time 3 day): 21.5 pg | MCHC (72 h, time 3 day): 33.7% | MCV (72 h, time 3 day): 63.9 fL | Mono (72 h, time 3 day): 3.8% | Neu (72 h, time 3 day): 20% | PT (72 h, time 3 day): 13.2 s | Plat (72 h, time 3 day): 117.9 x10_4/uL | RBC (72 h, time 3 day): 643 x10_4/ul | Ret (72 h, time 3 day): 6.6% | WBC (72 h, time 3 day): 108.6 x10_2/uL | KIDNEY_L (72 h, time 3 day): 1 g | KIDNEY_R (72 h, time 3 day): 1 g | KIDNEY_TOTAL (72 h, time 3 day): 1.9 g | LIVER (72 h, time 3 day): 10.3 g | A/G (72 h, time 3 day): 0.9 | ALP (72 h, time 3 day): 1550.6 IU/L | ALT (72 h, time 3 day): 53.8 IU/L | AST (72 h, time 3 day): 79 IU/L | BUN (72 h, time 3 day): 14.2 mg/dL | CRE (72 h, time 3 day): 0.2 mg/dL | Ca (72 h, time 3 day): 11.1 mg/dL | Cl (72 h, time 3 day): 104.6 meq/L | DBIL (72 h, time 3 day): 0.012 mg/dL | GLC (72 h, time 3 day): 166.2 mg/dL | IP (72 h, time 3 day): 8.1 mg/dL | K (72 h, time 3 day): 4 meq/L | LDH (72 h, time 3 day): 88.2 IU/L | Na (72 h, time 3 day): 141 meq/L | PL (72 h, time 3 day): 142.4 mg/dL | RALB (72 h, time 3 day): 2.6 g/dL | TBIL (72 h, time 3 day): 0.054 mg/dL | TC (72 h, time 3 day): 75.4 mg/dL | TG (72 h, time 3 day): 76 mg/dL | TP (72 h, time 3 day): 5.5 g/dL | gamma-GTP (72 h, time 3 day): 1 IU/L | TERMINAL_BW ([…], time 7 day): 251.1 g | TERMINAL_BW ([…], time 14 day): 311.7 g | TERMINAL_BW ([…], time 28 day): 393.2 g | APTT ([…], time 7 day): 20.5 s | Bas ([…], time 7 day): 0% | Eos ([…], time 7 day): 0.8% | Fbg ([…], time 7 day): 251.8 mg/dL | Hb ([…], time 7 day): 13.9 g/dL | Ht ([…], time 7 day): 41.6% | Lym ([…], time 7 day): 74.8% | MCH ([…], time 7 day): 20.9 pg | MCHC ([…], time 7 day): 33.5% | MCV ([…], time 7 day): 62.4 fL | Mono ([…], time 7 day): 2.2% | Neu ([…], time 7 day): 21.4% | PT ([…], time 7 day): 13 s | Plat ([…], time 7 day): 116.7 x10_4/uL | RBC ([…], time 7 day): 667 x10_4/ul | Ret ([…], time 7 day): 6.1% | WBC ([…], time 7 day): 109.2 x10_2/uL | APTT ([…], time 14 day): 17.9 s | Bas ([…], time 14 day): 0.8% | Eos ([…], time 14 day): 1% | Fbg ([…], time 14 day): 253.2 mg/dL | Hb ([…], time 14 day): 14.4 g/dL | Ht ([…], time 14 day): 43.7% | Lym ([…], time 14 day): 77.2% | MCH ([…], time 14 day): 20.2 pg | MCHC ([…], time 14 day): 32.9% | MCV ([…], time 14 day): 61.6 fL | Mono ([…], time 14 day): 2.4% | Neu ([…], time 14 day): 18.4% | PT ([…], time 14 day): 13.4 s | Plat ([…], time 14 day): 117.2 x10_4/uL | RBC ([…], time 14 day): 710.8 x10_4/ul | Ret ([…], time 14 day): 4.8% | WBC ([…], time 14 day): 98 x10_2/uL | APTT ([…], time 28 day): 17.1 s | Bas ([…], time 28 day): 0.2% | Eos ([…], time 28 day): 1.2% | Fbg ([…], time 28 day): 277.4 mg/dL | Hb ([…], time 28 day): 15.2 g/dL | Ht ([…], time 28 day): 45.2% | Lym ([…], time 28 day): 78.4% | MCH ([…], time 28 day): 19 pg | MCHC ([…], time 28 day): 33.6% | MCV ([…], time 28 day): 56.6 fL | Mono ([…], time 28 day): 1.6% | Neu ([…], time 28 day): 17.6% | PT ([…], time 28 day): 13.2 s | Plat ([…], time 28 day): 110.7 x10_4/uL | RBC ([…], time 28 day): 798 x10_4/ul | Ret ([…], time 28 day): 2.4% | WBC ([…], time 28 day): 93.4 x10_2/uL | KIDNEY_L ([…], time 7 day): 1.1 g | KIDNEY_R ([…], time 7 day): 1 g | KIDNEY_TOTAL ([…], time 7 day): 2.1 g | KIDNEY_L ([…], time 14 day): 1.2 g | KIDNEY_R ([…], time 14 day): 1.2 g | KIDNEY_TOTAL ([…], time 14 day): 2.4 g | KIDNEY_L ([…], time 28 day): 1.4 g | KIDNEY_R ([…], time 28 day): 1.4 g | KIDNEY_TOTAL ([…], time 28 day): 2.8 g | LIVER ([…], time 7 day): 11.9 g | LIVER ([…], time 14 day): 13.6 g | LIVER ([…], time 28 day): 15.5 g | A/G ([…], time 7 day): 0.9 | ALP ([…], time 7 day): 1700.8 IU/L | ALT ([…], time 7 day): 48.8 IU/L | AST ([…], time 7 day): 75.6 IU/L | BUN ([…], time 7 day): 16.6 mg/dL | CRE ([…], time 7 day): 0.2 mg/dL | Ca ([…], time 7 day): 10.9 mg/dL | Cl ([…], time 7 day): 105.2 meq/L | DBIL ([…], time 7 day): 0.012 mg/dL | GLC ([…], time 7 day): 192.4 mg/dL | IP ([…], time 7 day): 6.9 mg/dL | K ([…], time 7 day): 4.2 meq/L | LDH ([…], time 7 day): 77.4 IU/L | Na ([…], time 7 day): 141.4 meq/L | PL ([…], time 7 day): 157.4 mg/dL | RALB ([…], time 7 day): 2.6 g/dL | TBIL ([…], time 7 day): 0.036 mg/dL | TC ([…], time 7 day): 78.6 mg/dL | TG ([…], time 7 day): 104.8 mg/dL | TP ([…], time 7 day): 5.5 g/dL | gamma-GTP ([…], time 7 day): 1.4 IU/L | A/G ([…], time 14 day): 0.8 | ALP ([…], time 14 day): 1617 IU/L | ALT ([…], time 14 day): 40.2 IU/L | AST ([…], time 14 day): 72.2 IU/L | BUN ([…], time 14 day): 16.2 mg/dL | CRE ([…], time 14 day): 0.2 mg/dL | Ca ([…], time 14 day): 10.8 mg/dL | Cl ([…], time 14 day): 104.8 meq/L | DBIL ([…], time 14 day): 0.008 mg/dL | GLC ([…], time 14 day): 189.6 mg/dL | IP ([…], time 14 day): 7.5 mg/dL | K ([…], time 14 day): 3.8 meq/L | LDH ([…], time 14 day): 83.4 IU/L | Na ([…], time 14 day): 142.6 meq/L | PL ([…], time 14 day): 151.8 mg/dL | RALB ([…], time 14 day): 2.7 g/dL | TBIL ([…], time 14 day): 0.04 mg/dL | TC ([…], time 14 day): 75 mg/dL | TG ([…], time 14 day): 118.2 mg/dL | TP ([…], time 14 day): 5.8 g/dL | gamma-GTP ([…], time 14 day): 1 IU/L | A/G ([…], time 28 day): 0.8 | ALP ([…], time 28 day): 1207.4 IU/L | ALT ([…], time 28 day): 42 IU/L | AST ([…], time 28 day): 64.8 IU/L | BUN ([…], time 28 day): 15.2 mg/dL | CRE ([…], time 28 day): 0.2 mg/dL | Ca ([…], time 28 day): 10.7 mg/dL | Cl ([…], time 28 day): 105 meq/L | DBIL ([…], time 28 day): 0.01 mg/dL | GLC ([…], time 28 day): 178.8 mg/dL | IP ([…], time 28 day): 6.4 mg/dL | K ([…], time 28 day): 4.1 meq/L | LDH ([…], time 28 day): 67.2 IU/L | Na ([…], time 28 day): 143.6 meq/L | PL ([…], time 28 day): 142.6 mg/dL | RALB ([…], time 28 day): 2.7 g/dL | TBIL ([…], time 28 day): 0.054 mg/dL | TC ([…], time 28 day): 68.4 mg/dL | TG ([…], time 28 day): 125.4 mg/dL | TP ([…], time 28 day): 6.2 g/dL | gamma-GTP ([…], time 28 day): 0.8 IU/L
